How the values were obtained:
cGMP = assay: Parotid saliva cGMP, 96 plate spectrophotometric assay; format: in vivo, human; details: for saliva cGMP over initial values: improved patients; for change of saliva cGMP: unimproved patients
Method: (§1) Parotid saliva was collected from each patient by application of a Lashley cup over Stensen's duct with lingual stimulation by placement of concentrated lemon juice. Saliva was collected in plastic tubes and stored at −20° C. until assayed. cAMP and cGMP were measured in saliva by a sensitive 96 plate spectrophotometric assay (R&D Systems, Minneapolis, MN).
All patients were placed in a fixed design open label clinical trial with treatment with oral theophylline. Treatment consisted of fixed treatment periods of two-eight months with sequential doses of the drug at 200 mg, 400 mg and 600 mg. At termination of each of these intervals, patients returned to study site for reevaluation. At the end of each interval subjective responses to treatment were measured with a modification of the 0-100 scale previously used (vs). Subjective responses to treatment were graded on a sliding scale from −100-0-+100 with patients recording improvement (+0-+100), no improvement (0) or worsening (0—-100) of their overall smell function. If overall smell function improved ≥5% they were considered to improve clinically (1). If smell function improved <5% they were considered not to improve (1). At the end of each interval subjective measurements of smell function, measurements of DT, RT, ME and H and measurements of parotid saliva for levels of cAMP and cGMP were obtained. In addition, blood plasma was obtained by venipuncture, placed in ice into zinc free tubes which contained 100 mg zinc free heparin, centrifuged at 3000 rpm for 10-20 min, the plasma transferred to plastic PCR tubes and stored at −20° C. until assayed. Theophylline was assayed by a fluorescence polarization assay (Abbott, Chicago, IL), as previously described.
Data for the cyclic nucleotides from these 31 patients was not analyzed until the entire study of the 312 patients in Example 1 was assembled and analyzed in its entirety. After completion of these analyses, all data for parotid saliva cAMP and cGMP from all patients in whom salivary cAMP and cGMP were obtained were assembled. Levels of salivary cyclic nucleotides varied widely. Initially, without external criteria, there was no way to understand these disparate data. […] In a similar manner, measurements of each patient's plasma theophylline level at each dosage of theophylline (at 200 mg, 400 mg, 600 mg of theophylline) were catagorized. The two patient groups were also analyzed post hoc with respect to type of smell loss and etiology of smell loss.

[1] = asthma therapy; cited from earlier work
cAMP = assay: Parotid saliva cAMP, 96 plate spectrophotometric assay; format: in vivo, human
Method: as §1
All patients were placed in a fixed design open label clinical trial with treatment with oral theophylline. Treatment consisted of fixed treatment periods of two-eight months with sequential doses of the drug at 200 mg, 400 mg and 600 mg. At termination of each of these intervals, patients returned to study site for reevaluation. At the end of each interval subjective responses to treatment were measured with a modification of the 0-100 scale previously used (vs). […] Theophylline was assayed by a fluorescence polarization assay (Abbott, Chicago, IL), as previously described.
Data for the cyclic nucleotides from these 31 patients was not analyzed until the entire study of the 312 patients in Example 1 was assembled and analyzed in its entirety. […] The two patient groups were also analyzed post hoc with respect to type of smell loss and etiology of smell loss.

asthmatic patients = assay: sGaw after inhaled dry powder in asthmatic patients, single blind study (Examples 5, 6); format: in vivo, human; details: dry powder 2 mg inhaled
Method: (§2) To test this theory, asthmatic patients are enrolled in a dose escalating single blind study. On arrival to the clinic, subjects are allowed to rest for 20 minutes before baseline measurements of FEV1 (six recordings) and sGaw (five recordings) are made. Subjects receive a dry powder dispenser loaded with a dose of 2 mg theophylline or a dry powder carrier. […] After each inhalation, measurements of sGaw are made at 1, 3, 5, 10, 15, 20, 25, and 30 minutes.
On completion of the last recording, subjects inhale a 200 μg dose of salbutamol from a metered inhaler and a further measurement of sGaw is made after 15 minutes. Subjects are also monitored for coughing and are questioned about the taste of the drug.
as §2, with “Asthmatic patients” for “To test this theory, asthmatic patients”, “of 1” for “of 2”, “mg IBMX formulated as a dry powder” for “mg theophylline”
On completion of the last recording, subjects inhale a 200 μg dose of salbutamol from a metered inhaler and a further measurement of sGaw mad after 15 minutes. Subjects are also be monitored for coughing and are questioned about the taste of the drug.

Cn1c(=O)c2[nH]cnc2n(C)c1=O [theophylline]
saliva cGMP over initial values (cGMP; oral 400 mg): 275%
change of saliva cGMP (cGMP; oral 400 mg): little change
saliva cGMP over initial values (cGMP; oral 600 mg): 338%
change of saliva cGMP (cGMP; oral 600 mg): no increase
therapeutic range for plasma concentrations [1]: 10 to 20 mg/L
parotid saliva cAMP (cAMP; oral 400 mg, patients with improved smell function (12), mean ± SEM): 1.22 ± 0.33 pmol/mL
change of saliva cAMP (cAMP; oral 200, 400, 600 mg, unimproved patients): essentially no change
increase in sGaw versus 200 μg salbutamol (asthmatic patients): comparable to that produced by salbutamol
sGaw above baseline measurement (asthmatic patients; after 30 minutes): 20%

Source: patent US12329753B2, “Phosphodiesterase inhibitor treatment” (Cyrano Therapeutics, Inc., priority 2008, dated 2025)
